Measurements published in patent US12011431B2, “Pharmaceutical composition for preventing or treating sensorineural hearing loss, containing forskolin and retinoic acid as active ingredients” (AJOU UNIVERSITY INDUSTRY-ACADEMIC COOPERATION FOUNDATION, priority 2018, dated 2024).

Experiments:
[1] = test system: auditory hair cells, supporting cells and spiral ganglion cells in the organ of Corti; experiment: Hematoxylin-eosin staining of the cochlea in tumor-induced ototoxic hearing loss animal model; type: in vivo, Balb/c/nu/nu mice; details: basal and middle turns of the cochlea; forskolin given with cisplatin
Procedure: (§1) The produced tumor-induced animal model was classified into (1) a physiological saline group (Vehicle), (2) a forskolin administration group (forskolin), (3) a cisplatin administration group (cisplatin), and (4) a cisplatin+forskolin combination administration group (cisplatin+forskolin), and each drug was administered to each group. Cisplatin was administered at 12 mg/kg 5 times a week, forskolin was administered at 2.5 mg/kg 6 times a week for a total of 2 weeks, the auditory brainstem response test was performed again 1 week after all administration was completed, and hematoxylin-eosin staining was performed for histological analysis. The auditory brainstem response (ABR) test is a method that determines the minimum stimulus level (dB) as a hearing threshold when applying tone burst sounds at 16 kHz and 32 kHz using a TDT ABR device. In addition, loss and damage of the auditory hair cells, supporting cells and spiral ganglion cells in the organ of Corti during the basal and middle turns of the cochlea were evaluated using hematoxylin-eosin staining.

auditory hair cells = experiment: Histological examination of the cochlea in conventional ototoxic hearing loss animal model; type: in vivo, SD (Sprague-Dawley) rats; details: basal and middle turns in the cochlea; cisplatin 16 mg/kg i.p.; forskolin intratympanic; after 5 days
Procedure: In order to exclude mice having congenitally abnormal hearing, a preliminary hearing test was performed on all mice before the experiment. An auditory brainstem response (ABR) test was conducted on 7-week-old SD (Sprague-Dawley) rats and then 16 mg/kg/7 ml of a cisplatin anticancer drug was administered intraperitoneally once to induce ototoxic hearing loss (FIG. 2). Before and after cisplatin administration, forskolin was intratympanically injected (IT) into one ear once in an amount of 25 μM in 20 μL a total of two times, and physiological saline containing DMSO as a control group was injected into the other ear. After 5 days, an auditory brainstem response (ABR) test and a histological examination were performed to evaluate the effect of preventing induction of forskolin-cAMP activity against ototoxic hearing loss.

[2] = test system: lung cancer cell line (A549) xenograft; experiment: Cisplatin anticancer effect in tumor-induced animal model (tumor size); type: in vivo, Balb/c/nu/nu mice; details: intraperitoneal for 5 days, then reared for 7 days
Procedure: In order to exclude mice having congenitally abnormal hearing, a preliminary hearing test was performed on all mice before the experiment. An auditory brainstem response (ABR) test was conducted on the immunodeficient Balb/c/nu/nu mice and then a lung cancer cell line (A549) was xenografted subcutaneously into the mice to produce a tumor-induced animal model (FIG. 1). After tumor formation in the tumor-induced ototoxic hearing loss animal model of Example 1, mice were randomly classified, and then (1) physiological saline (vehicle), (2) forskolin, (3) cisplatin or (4) a combination of cisplatin and forskolin was administered intraperitoneally to the mice for 5 days, and then the mice were reared for 7 days. The average tumor volume and body weight of each group were measured every week (FIGS. 4A and 4B). In addition, the weight of each of the extracted tumor and kidney was also measured (FIG. 4E).

[3] = test system: tumor-induced ototoxic hearing loss animal model; experiment: Auditory brainstem response (ABR) test in tumor-induced ototoxic hearing loss animal model; type: in vivo, Balb/c/nu/nu mice; details: 1 week after 2 weeks of administration, cisplatin 12 mg/kg 5 times a week, forskolin 2.5 mg/kg 6 times a week
Procedure: In order to exclude mice having congenitally abnormal hearing, a preliminary hearing test was performed on all mice before the experiment. An auditory brainstem response (ABR) test was conducted on the immunodeficient Balb/c/nu/nu mice and then a lung cancer cell line (A549) was xenografted subcutaneously into the mice to produce a tumor-induced animal model (FIG. 1).
as §1, with “device.” for “device. In addition, loss and damage of the auditory hair cells, supporting cells and spiral ganglion cells in the organ of Corti during the basal and middle turns of the cochlea were evaluated using hematoxylin-eosin staining.”

HEI-OCl cells = experiment: Inhibition of cisplatin-induced apoptosis in auditory cell line (calcein AM, cleaved PARP and caspase 3); type: cell-based; details: cisplatin 25 μM
Procedure: An auditory cell line expressing auditory genes (HEI-OCl; House-Ear Institute-organ of Corti 1) was used, and the HEI-OCl cells were incubated in DMEM medium (Dulbecco's modified Eagle's Medium) containing a high concentration of glutamine, supplemented with 10% fetal bovine serum (FBS) and 25 U/ml of interferon gamma at 33° C. and 10% CO2. The cells were treated with cisplatin at a concentration of 25 μM, and the effects of forskolin and retinoic acid were analyzed under conditions in which about 40 to 50% of cells were killed by cisplatin ototoxicity. In order to analyze the effects of forskolin and retinoic acid on ototoxicity, experimental groups were classified into (1) normal, (2) forskolin, (3) retinoic acid, (4) cisplatin, (5) cisplatin+forskolin, (6) cisplatin+retinoic acid, (7) cisplatin+forskolin+retinoic acid. Cisplatin was administered in an amount of 25 μM, forskolin was administered in an amount of 20 μM, and retinoic acid was administered in an amount of 50 μM. Then, viable cells were observed using calcein AM, a fluorescent stain applicable to live cells, and cleaved PARP and caspase 3, as apoptosis markers, were identified at the protein level.

In the case of `N.N.[Cl][Pt][Cl]` [cisplatin, cis-diaminedichloroplatinum (II)], the “loss and damage of auditory outer hair cells (hematoxylin-eosin staining)” value [1] is reported as “a number of the auditory outer hair cells during the basal and middle turns were found to be lost”, the “loss of auditory hair cells (histological examination)” value (auditory hair cells) is reported as “loss of a number of auditory hair cells” and the “effect of reducing a tumor size compared to the control group” value [2] is reported as “about 50%”. The “hearing threshold (ABR)” value ([3]; 16 kHz) was 29 dB, the “hearing threshold (ABR)” value ([3]; 32 kHz) was 31 dB and the “cells killed by cisplatin ototoxicity” value (HEI-OCl cells) was 40 to 50%. The “cell viability / apoptosis (calcein staining, cleaved PARP and caspase 3)” value (HEI-OCl cells; forskolin 20 μM, retinoic acid 50 μM) was “apoptosis of cisplatin-induced auditory cell lines was observed”.
